Assay results from patent publication US20240254083A1, “HETEROCYCLIC TRPML1 AGONISTS AND USES THEREOF” (Libra Therapeutics, Inc., priority 2021, published 2024).

Legend:
[1] = test system: autophagy reporter Rosella stably expressed in HeK293 cell line; assay: Autophagy assay (Rosella-LC3 reporter, imaging); format: cell-based; settings: Homo sapiens; HeK293 cells with Rosella reporter (LC3 tag), 18 hours incubation, reference Torin-1; read-out: Autophagy pEC50 (converted)
Experimental: • Tyrode's buffer with 2 mM Ca^2+ in-house solution (130 mM NaCl, 5 mM KCl, 2 mM CaCl2), 1 mM MgCl2, 5 mM NaHCO3, 20 mM HEPES in water at pH 7.4; sterile filtered) • DMSO (Sigma) • Bis-benzimide H 33342 trihydrochloride (Hoechst 33342; Sigma-Aldrich) • Reference molecule (agonist): Torin-1, (#4247, Tocris) stock 1.2 mM in DMSO, stored at −20° C. Reporter of Autophagy and Cell line
Reporter Rosella: a fluorescent-based chimera constitutes by two fluorescent proteins, Green and Red variants, acting as a bimodal indicator of pH. The green fluorescent variant of the constructs is pH sensitive (pKa=6.9) while the red variant is not pH sensitive and it is used as reference. The reporter is fused to sequence for autophagosome localization (LC3 tag).
The reporter Rosella have been stably expressed in HeK293 cell line and used as read-out.
Experiments have been performed in 384 MTP poly-lysine coated well format. Cells have been seeded in 384-w at a density of 6000 cells/well in 25 μl/well complete growth medium without antibiotics. Twenty-four hours later, cells have been treated with compounds and incubated for further 18 hours. Then the cells have been imaged and assayed for the response to various compounds using the reporter for autophagy expressed in the cells as readout.
The experiments were performed in a 384-well format according to the following procedure: • 24 h after seeding, cells were incubated with compounds at the desired concentration, and with the reference molecule (agonist) Torin-1 at a top concentration of 1 μM (max signal), for 18 hours at 37° C. and 5% CO2. The final percentage of DMSO was 0.3% in all the conditions. • Then the culture medium was carefully removed to avoid cells detachment and to discard red phenol into the medium and that can interfere with the measurements. • Staining of the nuclei was obtained by incubating the cells with 8 μM/well of Hoechst 3342 in standard Tyrode's buffer for 20 min at RT • Then the cells were carefully washed two times with standard Tyrode's buffer • Finally, the samples were acquired by recording three fluorescence emission channels (green, red and blue) at 20× magnification and with at least 3-4 fields of view per well in an Operetta CLS microscope (PerkinElmer). • Image analysis was performed by using Harmony software (PerkinElmer). The image analysis involved the following steps: flat-field illumination correction, nuclei segmentation, cell segmentations and identification of vesicles/granules within the cytosol compartments and representing the autophagy vesicles. Measurements of signal intensity ratio (Green to Red) and number of autophagy vesicles per cells were used to obtain information on the effects of compounds on the autophagy flux. • Data from image analysis measurements were finally loaded and analyzed for normalization and fitting procedures in Genedata Screener© software.

hTRPML1 = molecular target: T1, hTRPML1 (Homo sapiens, UniProt Q9GZU1); assay: Cellular TRPML1 assay (FLIPR, GCaMP6f calcium read-out); format: cell-based; settings: HEK T-REx/GCaMP6f/TRPML1 cells, FLIPR TETRA, kinetic response over 300 seconds; read-out: hTRPML1 FLIPR pEC50 (converted)
T1 construct: expressed in transfected cells
Experimental: Buffers and reagents • PBS (D-PBS without calcium and magnesium; EuroClone) • Trypsin (Trypsin 0.05%, EDTA 0.02% in PBS; EuroClone) • DMSO (Sigma) • Ca^2+ free Tyrode's buffer: in-house solution (130 mM NaCl, 5 mM KCl, 1 mM MgCl2, 5 mM NaHCO3, 20 mM HEPES in water at pH 7.4; sterile filtered). • Opti-MEM (Gibco) • Agonist: ML-SA1 (Sigma); stock: 60 mM in DMSO, stored at −20° C. • Blocker: ML-SI3 (in house synthesis); stock: 20 mM in DMSO, stored at −20° C.
Cell line • The final clone for the TRPML1 assay is HEK T-REx/GCaMP6f/TRPML1. • GCaMP6f is a genetically encoded calcium indicator that is stably expressed in this cell line and used as a fluorescent read-out.
Cells are seeded at 15000 cells/well either in 25 µl/well of growth medium or in 20 μl/well of Optimem+0.5% FBS without selection antibiotics. Twenty-four hours later, cells are assayed for the response to various compounds using the Ca^2+ sensitive GCaMP6f protein stably expressed in the cells as readout.
The experiment is performed in a 384-well format according to the following procedures for either Ca^2+ free or Optimem conditions: • Ca^2+ free condition (in absence of extracellular Ca^2+): • 24 h after seeding, pre-incubate the cells at room temperature for about 10′. • Then remove the culture medium and replace it with 20 μL of Ca^2+ free Tyrode's buffer. • Start the experiment at the FLIPR^TETRA by injecting 10 μL/w of 3× concentrated test compounds and controls in Ca^2+ free Tyrode's buffer. Monitor the kinetic response over a period of 300 seconds. • Final DMSO concentration: 0.5% • Optimem condition (in presence of extracellular Ca^2+): • 24 h after seeding, pre-incubate the cells at room temperature for about 10′. • Start the experiment at the FLIPR^TETRA by injecting 10 μL/w of 3× concentrated test compounds and controls in Ca^2+ free Tyrode's buffer. Monitor the kinetic response over a period of 300 seconds. • Final DMSO concentration: 0.5%
Data from FLIPR^TETRA measurements are analyzed with the Genedata Screener© software.

T1 sequence (Q9GZU1 whole entry): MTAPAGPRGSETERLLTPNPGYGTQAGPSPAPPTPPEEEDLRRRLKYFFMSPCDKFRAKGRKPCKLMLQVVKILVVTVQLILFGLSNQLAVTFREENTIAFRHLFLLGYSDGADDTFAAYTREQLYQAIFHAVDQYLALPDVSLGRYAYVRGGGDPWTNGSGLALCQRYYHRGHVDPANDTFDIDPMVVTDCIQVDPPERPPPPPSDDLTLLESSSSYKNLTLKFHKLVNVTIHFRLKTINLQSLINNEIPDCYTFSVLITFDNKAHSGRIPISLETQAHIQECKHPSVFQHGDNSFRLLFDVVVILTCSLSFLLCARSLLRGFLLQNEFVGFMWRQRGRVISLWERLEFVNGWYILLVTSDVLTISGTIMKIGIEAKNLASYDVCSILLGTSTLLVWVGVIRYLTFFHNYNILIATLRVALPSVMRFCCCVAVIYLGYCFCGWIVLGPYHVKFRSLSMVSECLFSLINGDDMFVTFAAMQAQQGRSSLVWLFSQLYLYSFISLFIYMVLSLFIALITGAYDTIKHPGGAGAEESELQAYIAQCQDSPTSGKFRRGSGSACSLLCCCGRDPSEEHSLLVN

EC50 (hTRPML1) [µM]	Compound	EC50 [1] [µM]
1 to 3.16	CN(C)S(=O)(=O)c1ccc(C(=O)N(c2ccccc2N2CCC(Oc3ccccc3)CC2)C2CCC2)cc1 [Example 2, N-cyclobutyl-4-(N,N-dimethylsulfamoyl)-N-(2-(4-phenoxypiperidin-1-yl)phenyl)benzamide]	< 1
< 1	CN(C)S(=O)(=O)c1ccc(S(=O)(=O)Nc2cccc(F)c2N2CCC(Oc3ccccn3)CC2)cc1 [Example 8, N^1-(3-fluoro-2-(4-(pyridin-2-yloxy)piperidin-1-yl)phenyl)-N^4,N^4-dimethylbenzene-1,4-disulfonamide]	< 1
1 to 3.16	CC(C)(C)OC(=O)N1CCN(c2ccccc2NS(=O)(=O)c2ccc(C(F)(F)F)cc2)CC1 [Example 17, tert-butyl 4-(2-((4-(trifluoromethyl)phenyl)sulfonamido)phenyl) piperazine-1-carboxylate]	< 1
> 3.16	CCS(=O)(=O)c1ccc(S(=O)(=O)Nc2ccccc2N2CCC(Oc3ccccc3)CC2)cc1 [Example 6, 4-(ethylsulfonyl)-N-(2-(4-phenoxypiperidin-1-yl)phenyl)benzenesulfonamide]	> 3.16
> 3.16	CN(C)S(=O)(=O)c1ccc(S(=O)(=O)Nc2ccccc2N2CCOC(C3CCC3)C2)cc1 (stereo not shown) [Example 32, N^1-(2-(2-cyclobutylmorpholino)phenyl)-N^4,N^4-dimethylbenzene-1,4-disulfonamide]	1 to 3.16
1 to 3.16	CN(C)S(=O)(=O)c1ccc(C(=O)N(c2ccccc2N2CCC(Oc3ccccc3)CC2)C2CCCC2)cc1 [Example 1, N-cyclopentyl-4-(N,N-dimethylsulfamoyl)-N-(2-(4-phenoxypiperidin-1-yl)phenyl)benzamide]	< 1
> 3.16	CN(C)S(=O)(=O)c1ccc(S(=O)(=O)Nc2ccccc2N2CCOC(C3CC3)C2)cc1 (stereo not shown) [Example 31, N^1-(2-(2-cyclopropylmorpholino)phenyl)-N^4, N^4-dimethylbenzene-1,4-disulfonamide]	> 3.16
> 3.16	CN(C)S(=O)(=O)c1ccc(S(=O)(=O)Nc2ccccc2N2CCC(C)(Oc3ccccn3)CC2)cc1 [Example 40, N^1,N^1-dimethyl-N^4-(2-(4-methyl-4-(pyridin-2-yloxy)piperidin-1-yl)phenyl)benzene-1,4-disulfonamide]	< 1
1 to 3.16	CC(C)(C)OC(=O)N1CCN(c2ccccc2NS(=O)(=O)c2ccc(C3CC3)cc2)CC1 [Example 23, tert-butyl 4-(2-((4-cyclopropylphenyl)sulfonamido)phenyl) piperazine-1-carboxylate]	> 3.16
1 to 3.16	CN(C)S(=O)(=O)c1ccc(S(=O)(=O)Nc2ccccc2N2CCCC(COc3ccccc3)C2)cc1 (racemic) [Example 34, N^1,N^1-dimethyl-N^4-(2-(3-(phenoxymethyl)piperidin-1-yl)phenyl)benzene-1,4-disulfonamide]	1 to 3.16
1 to 3.16	CN(C)S(=O)(=O)c1ccc(S(=O)(=O)Nc2ccccc2N2CCCC(OCc3ccccc3)C2)cc1 (racemic) [Example 25, N^1-(2-(3-(benzyloxy)piperidin-1-yl)phenyl)-N^4,N^4-dimethylbenzene-1,4-disulfonamide]	1 to 3.16
> 3.16	C#CCC1CN(c2ccccc2NS(=O)(=O)c2ccc(S(=O)(=O)N(C)C)cc2)CCO1 (stereo not shown) [Example 33, N^1,N^1-dimethyl-N^4-(2-(2-(prop-2-yn-1-yl)morpholino)phenyl)benzene-1,4-disulfonamide]	< 1
1 to 3.16	Cc1ccc(S(=O)(=O)Nc2c(C)cccc2N2CCN(C(=O)OC(C)(C)C)CC2)cc1 [Example 22, tert-butyl 4-(3-methyl-2-((4-methylphenyl)sulfonamido)phenyl)piperazine-1-carboxylate]	> 3.16
1 to 3.16	O=S(=O)(Nc1cccc(F)c1N1CCC(Oc2ccccn2)CC1)c1ccc(C(F)(F)F)cc1 [Example 10, N-(3-fluoro-2-(4-(pyridin-2-yloxy)piperidin-1-yl)phenyl)-4-(trifluoromethyl)benzenesulfonamide]	1 to 3.16
1 to 3.16	CN(C)S(=O)(=O)c1ccc(S(=O)(=O)Nc2ccccc2N2CCC(C)(c3ccccc3)CC2)cc1 [Example 38, N^1,N^1-dimethyl-N^4-(2-(4-methyl-4-phenylpiperidin-1-yl)phenyl)benzene-1,4-disulfonamide]	< 1
1 to 3.16	CN(C)S(=O)(=O)c1ccc(S(=O)(=O)Nc2ccccc2N2CCCC(Oc3ccccc3)C2)cc1 (racemic) [Example 28, N^1,N^1-dimethyl-N^4-(2-(3-phenoxypiperidin-1-yl)phenyl)benzene-1,4-disulfonamide]	< 1
1 to 3.16	Cc1ccc(S(=O)(=O)Nc2ccccc2N2CCN(C(=O)OC(C)(C)C)CC2)cc1F [Example 19, tert-butyl 4-(2-((3-fluoro-4-methylphenyl)sulfonamido)phenyl)piperazine-1-carboxylate]	> 3.16
